Assay [1] addresses Voltage-gated inwardly rectifying potassium channel KCNH2 (Homo sapiens, UniProt Q12809). The assay is described as follows: Displacement of [35S]MK499 from human ERG expressed in HEK293 cells. To be noted: for IC50: read-out: IP. Format: cell-based. In general terms: In a radioligand displacement assay an active substance lowers the binding of a labelled ligand.
A short description of assay [2]: Displacement of [3H](E)-N1-(2-methoxybenzyl)-cinnamamidine from human recombinant N-methyl-D-aspartate receptor subunit NR1a/N-methyl D-aspartate receptor subtype 2B expressed in mouse Ltk cells by radioligand binding assay.
Assay [3] concerns the target Glutamate receptor ionotropic, NMDA 2B (Homo sapiens, UniProt Q13224). The assay is described as follows: Antagonistic activity against NR2B receptor expressed in mouse Ltk cells assessed as inhibition of calcium influx by FLIPR assay. Format: functional, cell-based.
A short description of assay [4]: Binding affinity to alpha1 adrenergic receptor.
For another assay, the species on record is Homo sapiens. The assay is described as follows: Selectivity ratio of Ki for human NR2B to IP for human ERG.

Sequence of Voltage-gated inwardly rectifying potassium channel KCNH2 (Q12809 whole entry): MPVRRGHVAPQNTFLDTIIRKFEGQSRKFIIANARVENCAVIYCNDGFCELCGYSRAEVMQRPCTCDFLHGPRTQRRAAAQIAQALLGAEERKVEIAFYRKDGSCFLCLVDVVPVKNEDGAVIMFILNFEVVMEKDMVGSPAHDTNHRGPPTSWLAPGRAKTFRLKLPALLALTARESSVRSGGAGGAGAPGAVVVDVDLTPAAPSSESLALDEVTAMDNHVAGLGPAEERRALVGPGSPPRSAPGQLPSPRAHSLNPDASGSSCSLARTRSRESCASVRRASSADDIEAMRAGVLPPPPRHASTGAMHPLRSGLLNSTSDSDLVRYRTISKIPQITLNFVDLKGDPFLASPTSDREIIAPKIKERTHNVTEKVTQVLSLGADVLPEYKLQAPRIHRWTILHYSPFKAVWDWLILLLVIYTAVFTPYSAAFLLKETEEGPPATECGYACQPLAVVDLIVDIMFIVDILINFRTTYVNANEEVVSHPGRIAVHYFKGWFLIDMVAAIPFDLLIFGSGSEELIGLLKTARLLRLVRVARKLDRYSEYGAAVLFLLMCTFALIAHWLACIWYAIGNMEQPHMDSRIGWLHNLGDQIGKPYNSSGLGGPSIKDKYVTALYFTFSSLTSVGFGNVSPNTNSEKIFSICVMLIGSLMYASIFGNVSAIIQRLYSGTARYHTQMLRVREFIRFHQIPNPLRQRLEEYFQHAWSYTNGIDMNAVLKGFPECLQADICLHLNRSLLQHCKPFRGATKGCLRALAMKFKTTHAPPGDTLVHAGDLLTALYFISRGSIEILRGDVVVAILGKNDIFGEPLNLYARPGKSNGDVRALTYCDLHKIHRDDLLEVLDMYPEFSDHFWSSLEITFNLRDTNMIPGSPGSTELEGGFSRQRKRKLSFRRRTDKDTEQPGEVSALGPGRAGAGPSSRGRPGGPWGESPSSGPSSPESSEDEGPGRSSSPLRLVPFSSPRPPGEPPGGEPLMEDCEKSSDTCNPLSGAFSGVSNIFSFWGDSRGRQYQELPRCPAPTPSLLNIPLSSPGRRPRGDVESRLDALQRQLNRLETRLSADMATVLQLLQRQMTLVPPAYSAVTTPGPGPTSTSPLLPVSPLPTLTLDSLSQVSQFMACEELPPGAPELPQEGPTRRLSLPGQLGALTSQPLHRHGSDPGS
Sequence of Glutamate receptor ionotropic, NMDA 2B (Q13224 whole entry): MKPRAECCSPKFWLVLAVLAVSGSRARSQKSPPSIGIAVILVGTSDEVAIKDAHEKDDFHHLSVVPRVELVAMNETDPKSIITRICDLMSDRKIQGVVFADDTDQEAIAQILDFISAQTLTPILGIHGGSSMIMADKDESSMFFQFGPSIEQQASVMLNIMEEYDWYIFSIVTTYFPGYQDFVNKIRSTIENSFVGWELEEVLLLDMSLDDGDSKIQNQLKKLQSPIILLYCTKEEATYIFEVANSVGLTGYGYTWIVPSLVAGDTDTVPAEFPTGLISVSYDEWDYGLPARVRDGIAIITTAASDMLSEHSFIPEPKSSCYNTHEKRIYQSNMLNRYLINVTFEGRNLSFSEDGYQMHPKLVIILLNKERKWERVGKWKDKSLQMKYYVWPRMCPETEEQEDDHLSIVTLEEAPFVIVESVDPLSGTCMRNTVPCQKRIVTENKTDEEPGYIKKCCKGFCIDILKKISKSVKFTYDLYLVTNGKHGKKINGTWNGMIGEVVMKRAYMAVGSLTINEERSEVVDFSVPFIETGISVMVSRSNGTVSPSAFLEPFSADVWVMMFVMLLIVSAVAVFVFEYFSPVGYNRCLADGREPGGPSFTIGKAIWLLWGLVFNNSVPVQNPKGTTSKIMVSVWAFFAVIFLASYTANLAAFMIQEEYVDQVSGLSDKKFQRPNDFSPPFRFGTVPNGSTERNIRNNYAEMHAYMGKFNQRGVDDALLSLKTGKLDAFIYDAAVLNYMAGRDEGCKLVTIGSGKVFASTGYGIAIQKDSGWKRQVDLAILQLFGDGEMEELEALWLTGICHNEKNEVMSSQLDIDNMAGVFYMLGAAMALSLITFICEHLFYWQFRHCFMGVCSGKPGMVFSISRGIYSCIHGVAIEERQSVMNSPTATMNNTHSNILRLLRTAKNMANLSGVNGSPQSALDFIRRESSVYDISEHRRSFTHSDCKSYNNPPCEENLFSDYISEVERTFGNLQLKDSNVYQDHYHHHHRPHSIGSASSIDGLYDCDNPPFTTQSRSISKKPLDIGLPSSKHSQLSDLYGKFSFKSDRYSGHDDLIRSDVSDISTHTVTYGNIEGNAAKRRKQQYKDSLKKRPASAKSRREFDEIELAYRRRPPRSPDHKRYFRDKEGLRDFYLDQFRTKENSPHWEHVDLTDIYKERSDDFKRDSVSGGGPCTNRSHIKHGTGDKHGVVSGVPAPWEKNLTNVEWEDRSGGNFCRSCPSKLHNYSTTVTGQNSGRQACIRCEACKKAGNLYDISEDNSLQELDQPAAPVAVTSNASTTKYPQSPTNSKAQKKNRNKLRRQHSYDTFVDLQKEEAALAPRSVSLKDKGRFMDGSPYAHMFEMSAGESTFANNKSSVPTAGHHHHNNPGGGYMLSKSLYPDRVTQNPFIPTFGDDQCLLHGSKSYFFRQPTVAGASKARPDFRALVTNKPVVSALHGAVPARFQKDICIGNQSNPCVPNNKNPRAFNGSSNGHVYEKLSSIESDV

In the case of `COc1cccc(-c2cnc3c(c2)C(O)c2cccc(C#N)c2C=C3)c1` (centres undefined), the IC50 in assay [1] amounted to 1530 nM. Moreover, the Ki (in general, a dissociation constant, usually derived from enzyme kinetics or from competition with a known ligand) in assay [2] is 9 nM.

Take `COc1ccccc1-c1cnc2c(c1)C(O)c1cccc(C#N)c1C=C2` (centres undefined): the IC50 in assay [1] was determined as 5450 nM. Besides, the Ki in assay [2] was found to be 13 nM.

In the case of `COc1ccc(-c2cnc3c(c2)C(O)c2cccc(C#N)c2C=C3)cc1` (centres undefined), the IC50 in assay [1] was 1610 nM. Also, the inhibitory constant (Ki) in assay [2] stood at 8 nM.

`N#Cc1cccc2c1C=Cc1ncc(N3CCCC3)cc1C2O` (centres undefined): the IC50 in assay [1] is 15500 nM. Besides, the Ki in assay [2] amounted to 720 nM.

Consider `N#Cc1cccc2c1C(=O)Nc1ncc(-c3ccccc3)cc1C2`, for which the Ki was 431 nM in assay [1] and 19 nM in assay [2].

Regarding `N#Cc1cccc2c1C=Cc1ncc(-c3cccc(F)c3)cc1C2O` (centres undefined), in assay [1], the IC50 worked out at 4970 nM. The Ki in assay [2] came out at 23 nM.

Take `N#Cc1cccc2c1CCc1ncc(-c3ccccc3)cc1C2O` (centres undefined): the IC50 in assay [1] stood at 3560 nM. Further, in assay [2], the Ki was 56 nM.

As for `N#Cc1cccc2c1C=Cc1ncc(-c3ccccc3F)cc1C2O` (centres undefined), the IC50 in assay [1] came to 4440 nM. Moreover, the Ki in assay [2] is 16 nM.

For the compound `N#Cc1cccc2c1C=Cc1ncc(N3CCCCC3)cc1C2O` (racemic), the IC50 in assay [1] worked out at 10000 nM. Further, the inhibition constant (Ki) in assay [2] stood at 43 nM.

For the compound `COC1c2cc(-c3ccccc3)cnc2C=Cc2c(C#N)cccc21` (centres undefined), the IC50 in assay [1] was 660 nM. Moreover, in assay [2], the Ki worked out at 4800 nM.

As to `N#Cc1cccc2c1C=Cc1ncc(-c3ccc(F)cc3)cc1C2O` (centres undefined), the IC50 in assay [1] was 512 nM. Moreover, the Ki in assay [2] was 3 nM.

In the case of `N#Cc1cccc2c1C=Cc1ncc(-c3ccccc3)cc1C2`, in assay [1], the IC50 turned out to be 65 nM. In addition, the Ki in assay [2] worked out at 2 nM.

`N#Cc1cccc2c1C=Cc1ncc(N3CCCCC3)cc1C2O` (single isomer, unassigned; (-)) [listing 1 of 2 here]: the IC50 in assay [1] is 20000 nM; in assay [3], 27 nM. For the same compound, the inhibition constant Ki is more than 21000 nM in assay [4] and 17 nM in assay [2].

Regarding `CN1CCN(c2cnc3c(c2)C(O)c2cccc(C#N)c2C=C3)CC1` (centres undefined), in assay [1], the IC50 was 42000 nM. In addition, the inhibition constant Ki in assay [2] is more than 16000 nM.

With `N#Cc1cccc2c1C=Cc1ncc(-c3ccccc3)cc1C2O` (single isomer, unassigned; (-)), the IC50 in assay [1] was 590 nM; in assay [3] it was 9 nM. Also, the figures for the Ki in assay [4] and in assay [2] were 5000 nM and 1 nM, respectively.

In the case of `N#Cc1cccc2c1CCc1ncc(-c3ccccc3)cc1C2`, the IC50 in assay [1] was determined as 154 nM. Also, in assay [2], the inhibitory constant (Ki) was 77 nM.

Turning to `Cc1ccc(-c2cnc3c(c2)C(O)c2cccc(C#N)c2C=C3)cc1` (centres undefined), in assay [1], the IC50 was 1700 nM. The Ki in assay [2] turned out to be 10 nM.

`N#Cc1cccc2c1C=Cc1ncc(-c3ccccc3)cc1C2O` (racemic): in assay [1], the IC50 amounted to 5100 nM. In assay [2], the inhibition constant Ki was 2 nM.

Take `Cc1ccccc1-c1cnc2c(c1)C(O)c1cccc(C#N)c1C=C2` (centres undefined): in assay [1], the IC50 was determined as 1350 nM. Further, the inhibitory constant (Ki) in assay [2] worked out at 6 nM.

For the compound `N#Cc1cccc2c1C=Cc1ncc(-c3ccccc3)cc1C2O` (single isomer, unassigned; (+)), in assay [1], the IC50 is 10000 nM. Besides, the Ki in assay [2] turned out to be 540 nM.

As for `N#Cc1cccc2c1C=Cc1ncc(N3CCCCC3)cc1C2O` (single isomer, unassigned; (+)), the IC50 in assay [1] stood at 20000 nM. The inhibition constant (Ki) in assay [2] turned out to be 35000 nM.

As for `CC(=O)OC1c2cc(-c3ccccc3)cnc2C=Cc2c(C#N)cccc21` (centres undefined), the IC50 in assay [1] came to 653 nM. In addition, the inhibitory constant (Ki) in assay [2] is 10 nM.

Take `N#Cc1cccc2c1C=Cc1ncc(N3CCCCCC3)cc1C2O` (centres undefined): in assay [1], the IC50 is 3000 nM. In addition, the Ki in assay [2] stood at 428 nM.

As for `N#Cc1cccc2c1C=Cc1ncc(N3CCOCC3)cc1C2O` (centres undefined), the IC50 in assay [1] came to 20000 nM. Further, in assay [2], the inhibitory constant (Ki) was found to be 196 nM.

With `Cc1cccc(-c2cnc3c(c2)C(O)c2cccc(C#N)c2C=C3)c1` (centres undefined), in assay [1], the IC50 stood at 1100 nM. The Ki in assay [2] turned out to be 4 nM.

Turning to `N#Cc1cccc2c(=O)c3cc(-c4ccccc4)cnc3ccc12`, the IC50 in assay [1] amounted to 882 nM. Further, the Ki in assay [2] was 1000 nM.

Turning to `CC1CCN(c2cnc3c(c2)C(O)c2cccc(C#N)c2C=C3)CC1` (centres undefined), in assay [1], the IC50 is 5300 nM. Also, the Ki in assay [2] came to 83 nM.

For `N#Cc1cccc2c1C=Cc1ncc(N3CCCCC3)cc1C2O` (single isomer, unassigned; (-)) [listing 2 of 2 here], the Ratio in the assay filed under Homo sapiens was 1000.
